Data: ChEMBL document CHEMBL1134025, “Thiosugars. Part 9: synthesis and biological evaluation of some 4'-thio-L-arabino nucleoside analogues” (2001)
Converted amounts (≈) assume the structure as drawn. The source made the active and inactive calls. The rule behind the calls is not given here.

Tests used:
Human betaherpesvirus 5 [1] = experiment: Minimum inhibitory concentration required to reduce HCMV induced cytopathogenicity by 50%; type: functional
Human alphaherpesvirus 3 [2] = experiment: Minimum inhibitory concentration required to reduce VZV induced cytopathogenicity by 50%; type: functional
[3] = test system: Mammalian orthoreovirus 1; experiment: Minimum inhibitory concentration required to reduce Reo virus-1 induced cytopathogenicity by 50%; type: functional, reo virus type 1
Human respirovirus 3 [4] = experiment: Minimum inhibitory concentration required to reduce Parainfluenza-3 virus induced cytopathogenicity by 50%; type: functional
[5] = test system: Respiratory syncytial virus; experiment: Minimum inhibitory concentration required to reduce Respiratory syncytial virus induced cytopathogenicity by 50%; type: functional; settings: human respiratory syncytial virus
Coxsackievirus B4 [6] = experiment: Minimum inhibitory concentration required to reduce Coxsackie B4 virus induced cytopathogenicity by 50%; type: functional; settings: Enterovirus B
Sindbis virus [7] = experiment: Minimum inhibitory concentration required to reduce Sindbis virus induced cytopathogenicity by 50%; type: functional
[8] = test system: Vesicular stomatitis virus; experiment: Minimum inhibitory concentration required to reduce Vesicular stomatitis virus induced cytopathogenicity by 50%; type: functional
[9] = test system: Human immunodeficiency virus 2; experiment: Minimum inhibitory concentration required to reduce HIV-2 induced cytopathogenicity by 50%; type: functional
[10] = test system: Human immunodeficiency virus 1; experiment: Minimum inhibitory concentration required to reduce HIV-1 induced cytopathogenicity by 50%; type: functional
Human alphaherpesvirus 1 [11] = experiment: Minimum inhibitory concentration required to reduce HSV-1(KOS) induced cytopathogenicity by 50%; type: functional
Punta Toro virus [12] = experiment: Minimum inhibitory concentration required to reduce Punta Toro virus induced cytopathogenicity by 50%; type: functional
Human alphaherpesvirus 2 [13] = experiment: Minimum inhibitory concentration required to reduce HSV-2 induced cytopathogenicity by 50%; type: functional
Human alphaherpesvirus 1 [14] = experiment: Minimum inhibitory concentration required to reduce HSV-1 induced cytopathogenicity by 50%; type: functional
[15] = test system: Respiratory syncytial virus; experiment: Cytotoxicity was evaluated against Respiratory syncytial virus at 200-400 uM; IA=inactive; type: functional, organism-based
Human alphaherpesvirus 1 [16] = experiment: Cytotoxicity was evaluated against HSV-1 at 200-400 uM; IA=inactive; type: functional, organism-based
Coxsackievirus B4 [17] = experiment: Cytotoxicity was evaluated against Coxsackie B4 virus at 200-400 uM; IA=inactive; type: functional, organism-based
Vaccinia virus = settings: Orthopoxvirus vaccinia
Human alphaherpesvirus 2 [18] = experiment: Cytotoxicity was evaluated against HSV-2 at 200-400 uM; IA=inactive; type: functional, organism-based
Human betaherpesvirus 5 [19] = experiment: Cytotoxicity was evaluated against HCMV at 200-400 uM; IA=inactive; type: functional, organism-based
Human alphaherpesvirus 3 [20] = experiment: Cytotoxicity was evaluated against VZV at 200-400 uM; IA=inactive; type: functional, organism-based
[21] = test system: Mammalian orthoreovirus 1; experiment: Cytotoxicity was evaluated against Reo virus-1 at 200-400 uM; IA=inactive; type: functional, organism-based; settings: reo virus type 1
[22] = test system: Human immunodeficiency virus 2; experiment: Cytotoxicity was evaluated against HIV-2 at 200-400 uM; IA=inactive; type: functional, organism-based
Sindbis virus [23] = experiment: Cytotoxicity was evaluated against Sindbis virus at 200-400 uM; IA=inactive; type: functional, organism-based
[24] = test system: Human immunodeficiency virus 1; experiment: Cytotoxicity was evaluated against HIV-1 at 200-400 uM; IA=inactive; type: functional, organism-based
[25] = test system: Vesicular stomatitis virus
Punta Toro virus [26] = experiment: Cytotoxicity was evaluated against Punta Toro virus at 200-400 uM; IA=inactive; type: functional, organism-based
Human respirovirus 3 [27] = experiment: Cytotoxicity was evaluated against Parainfluenza-3 virus at 200-400 uM; IA=inactive; type: functional, organism-based

Row | Compound | MIC (Human betaherpesvirus 5 [1]) [µg/mL] | MIC (Human alphaherpesvirus 3 [2]) [µg/mL] | MIC [3] [µg/mL] | MIC (Human respirovirus 3 [4]) [µg/mL] | MIC [5] [µg/mL] | MIC (Coxsackievirus B4 [6]) [µg/mL] | Cytotoxicity [15] | Cytotoxicity (Human alphaherpesvirus 1 [16]) | Cytotoxicity (Coxsackievirus B4 [17]) | Cytotoxicity (Vaccinia virus) | Cytotoxicity (Human alphaherpesvirus 2 [18]) | Cytotoxicity (Human betaherpesvirus 5 [19]) | Cytotoxicity (Human alphaherpesvirus 3 [20]) | Cytotoxicity [21] | Cytotoxicity [22] | Cytotoxicity (Sindbis virus [23]) | Cytotoxicity [24] | Cytotoxicity [25] | Cytotoxicity (Punta Toro virus [26]) | Cytotoxicity (Human respirovirus 3 [27]) | further results
1 | O=c1ccn([C@H]2S[C@@H](CO)[C@H](O)[C@H]2O)c(=O)[nH]1 | 400 (≈ 1540 µM) | 400 (≈ 1540 µM) | 400 (≈ 1540 µM) | 400 (≈ 1540 µM) | 400 (≈ 1540 µM) | 400 (≈ 1540 µM) | – | – | – | – | – | – | – | – | – | – | – | – | – | – | MIC (Sindbis virus [7]): 400 µg/mL (≈ 1540 µM); MIC [8]: 400 µg/mL (≈ 1540 µM); MIC [9]: 400 µg/mL (≈ 1540 µM); MIC [10]: 400 µg/mL (≈ 1540 µM); MIC (Human alphaherpesvirus 1 [11]): 48 µg/mL (≈ 184 µM); MIC (Punta Toro virus [12]): 400 µg/mL (≈ 1540 µM); MIC (Human alphaherpesvirus 2 [13]): 400 µg/mL (≈ 1540 µM)
2 | Cc1cn([C@H]2S[C@@H](CO)[C@H](O)[C@H]2O)c(=O)[nH]c1=O | 400 (≈ 1460 µM) | 400 (≈ 1460 µM) | 400 (≈ 1460 µM) | 400 (≈ 1460 µM) | 400 (≈ 1460 µM) | 400 (≈ 1460 µM) | – | – | – | – | – | – | – | – | – | – | – | – | – | – | MIC (Sindbis virus [7]): 400 µg/mL (≈ 1460 µM); MIC [8]: 400 µg/mL (≈ 1460 µM); MIC [9]: 400 µg/mL (≈ 1460 µM); MIC [10]: 400 µg/mL (≈ 1460 µM); MIC (Punta Toro virus [12]): 400 µg/mL (≈ 1460 µM); MIC (Human alphaherpesvirus 1 [14]): 400 µg/mL (≈ 1460 µM); MIC (Human alphaherpesvirus 2 [13]): 400 µg/mL (≈ 1460 µM)
3 | CC(=O)OC1S[C@@H](COCc2ccccc2)[C@H](OCc2ccccc2)[C@H]1OCc1ccccc1 (stereo partly drawn) | – | – | – | – | – | – | inactive | inactive | inactive | inactive | inactive | inactive | inactive | inactive | inactive | inactive | inactive | inactive | inactive | inactive | –
4 | Nc1ccn(C2S[C@@H](COCc3ccccc3)[C@H](OCc3ccccc3)[C@H]2OCc2ccccc2)c(=O)n1 (stereo partly drawn) | – | – | – | – | – | – | inactive | inactive | inactive | inactive | inactive | inactive | inactive | inactive | inactive | inactive | inactive | inactive | inactive | inactive | –
5 | O=c1nc(-n2cncn2)ccn1C1S[C@@H](COCc2ccccc2)[C@H](OCc2ccccc2)[C@H]1OCc1ccccc1 (stereo partly drawn) | – | – | – | – | – | – | inactive | inactive | inactive | inactive | inactive | inactive | inactive | inactive | inactive | inactive | inactive | inactive | inactive | inactive | –
6 | Cc1cn([C@@H]2S[C@@H](CO)[C@H](O)[C@H]2O)c(=O)[nH]c1=O | 400 (≈ 1460 µM) | 400 (≈ 1460 µM) | 400 (≈ 1460 µM) | 400 (≈ 1460 µM) | 400 (≈ 1460 µM) | 400 (≈ 1460 µM) | – | – | – | – | – | – | – | – | – | – | – | – | – | – | MIC (Sindbis virus [7]): 400 µg/mL (≈ 1460 µM); MIC [8]: 400 µg/mL (≈ 1460 µM); MIC [9]: 400 µg/mL (≈ 1460 µM); MIC [10]: 400 µg/mL (≈ 1460 µM); MIC (Human alphaherpesvirus 1 [11]): 48 µg/mL (≈ 175 µM); MIC (Punta Toro virus [12]): 400 µg/mL (≈ 1460 µM); MIC (Human alphaherpesvirus 2 [13]): 400 µg/mL (≈ 1460 µM)
7 | O=c1[nH]c(=O)n(C2S[C@@H](CO)[C@H](O)[C@H]2O)cc1F (stereo partly drawn) | – | – | – | – | – | – | inactive | inactive | inactive | inactive | inactive | inactive | inactive | inactive | inactive | inactive | inactive | inactive | inactive | inactive | –
8 | C[C@@]1(n2ccc(N)nc2=O)CS[C@H](CO)O1 | – | – | – | – | – | – | inactive | inactive | inactive | inactive | inactive | inactive | inactive | inactive | inactive | inactive | inactive | inactive | inactive | inactive | –
9 | Nc1ccn(C2S[C@@H](CO)[C@H](O)[C@H]2O)c(=O)n1 (stereo partly drawn) | 400 (≈ 1540 µM) | 400 (≈ 1540 µM) | 400 (≈ 1540 µM) | 400 (≈ 1540 µM) | 400 (≈ 1540 µM) | 400 (≈ 1540 µM) | – | – | – | – | – | – | – | – | – | – | – | – | – | – | MIC (Sindbis virus [7]): 400 µg/mL (≈ 1540 µM); MIC [8]: 400 µg/mL (≈ 1540 µM); MIC [9]: 400 µg/mL (≈ 1540 µM); MIC [10]: 400 µg/mL (≈ 1540 µM); MIC (Punta Toro virus [12]): 400 µg/mL (≈ 1540 µM); MIC (Human alphaherpesvirus 1 [14]): 400 µg/mL (≈ 1540 µM); MIC (Human alphaherpesvirus 2 [13]): 400 µg/mL (≈ 1540 µM)
10 | O=c1ccn([C@@H]2S[C@@H](CO)[C@H](O)[C@H]2O)c(=O)[nH]1 | 400 (≈ 1540 µM) | 400 (≈ 1540 µM) | 400 (≈ 1540 µM) | 400 (≈ 1540 µM) | 400 (≈ 1540 µM) | 400 (≈ 1540 µM) | – | – | – | – | – | – | – | – | – | – | – | – | – | – | MIC (Sindbis virus [7]): 400 µg/mL (≈ 1540 µM); MIC [8]: 400 µg/mL (≈ 1540 µM); MIC [9]: 400 µg/mL (≈ 1540 µM); MIC [10]: 400 µg/mL (≈ 1540 µM); MIC (Punta Toro virus [12]): 400 µg/mL (≈ 1540 µM); MIC (Human alphaherpesvirus 1 [14]): 400 µg/mL (≈ 1540 µM); MIC (Human alphaherpesvirus 2 [13]): 400 µg/mL (≈ 1540 µM)
11 | Nc1ncnc2c1ncn2[C@H]1S[C@@H](CO)[C@H](O)[C@H]1O | 400 (≈ 1410 µM) | 400 (≈ 1410 µM) | 48 (≈ 169 µM) | 400 (≈ 1410 µM) | 400 (≈ 1410 µM) | 400 (≈ 1410 µM) | – | – | – | – | – | – | – | – | – | – | – | – | – | – | MIC (Sindbis virus [7]): 400 µg/mL (≈ 1410 µM); MIC [8]: 400 µg/mL (≈ 1410 µM); MIC [9]: 400 µg/mL (≈ 1410 µM); MIC [10]: 400 µg/mL (≈ 1410 µM); MIC (Punta Toro virus [12]): 400 µg/mL (≈ 1410 µM); MIC (Human alphaherpesvirus 1 [14]): 400 µg/mL (≈ 1410 µM); MIC (Human alphaherpesvirus 2 [13]): 400 µg/mL (≈ 1410 µM)
12 | Nc1ncnc2c1ncn2C1S[C@@H](COCc2ccccc2)[C@H](OCc2ccccc2)[C@H]1OCc1ccccc1 (stereo partly drawn) | – | – | – | – | – | – | inactive | inactive | inactive | inactive | inactive | inactive | inactive | inactive | inactive | inactive | inactive | inactive | inactive | inactive | –
13 | Nc1ncnc2c1ncn2[C@@H]1S[C@@H](CO)[C@H](O)[C@H]1O | 400 (≈ 1410 µM) | 400 (≈ 1410 µM) | 400 (≈ 1410 µM) | 400 (≈ 1410 µM) | 400 (≈ 1410 µM) | 400 (≈ 1410 µM) | – | – | – | – | – | – | – | – | – | – | – | – | – | – | MIC (Sindbis virus [7]): 400 µg/mL (≈ 1410 µM); MIC [8]: 400 µg/mL (≈ 1410 µM); MIC [9]: 400 µg/mL (≈ 1410 µM); MIC [10]: 400 µg/mL (≈ 1410 µM); MIC (Punta Toro virus [12]): 400 µg/mL (≈ 1410 µM); MIC (Human alphaherpesvirus 1 [14]): 400 µg/mL (≈ 1410 µM); MIC (Human alphaherpesvirus 2 [13]): 400 µg/mL (≈ 1410 µM)
14 | O=c1[nH]c(=O)n(C2S[C@@H](CO)[C@H](O)[C@H]2O)cc1Br (stereo partly drawn) | – | – | – | – | – | – | inactive | inactive | inactive | inactive | inactive | inactive | inactive | inactive | inactive | inactive | inactive | inactive | inactive | inactive | –
15 | O=c1[nH]c(=O)n(C2S[C@@H](CO)[C@H](O)[C@H]2O)cc1Cl (stereo partly drawn) | – | – | – | – | – | – | inactive | inactive | inactive | inactive | inactive | inactive | inactive | inactive | inactive | inactive | inactive | inactive | inactive | inactive | –
